According to patent publication US9511073B2, “Aromatic amides and uses thereof” (TAXIS Pharmaceuticals, Inc., priority 2011, dated 2016):
≈ marks a conversion by molar mass, not a printed value.

test system: Staphylococcus aureus (Isolate ID ATCC 29213); test: Bacterial assay: MIC by broth microdilution or agar dilution (CLSI), S. aureus ATCC 29213; type: cell-based; settings: S. aureus (ATCC29213)
Procedure, shortened: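 Activity is binned (A ≤0.25 μg/mL; B >0.25–1.0; C >1.0–16; D >16 μg/mL) from MICs determined per CLSI by broth microdilution or agar dilution, on S. aureus ATCC 29213 plus an FtsZ-G196A mutant strain.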

Q: With `NC(=O)c1c(F)ccc(OC(CC(O)CO)c2nc(-c3ccc(C(F)(F)F)cc3)c(Br)o2)c1F` (stereo not shown) [Compound 148, 3-(1-(5-bromo-4-(4-(trifluoromethyl)phenyl)oxazol-2-yl)-3,4-dihydroxybutoxy)-2,6-difluorobenzamide] as the compound, how does the “S. aureus MIC (μg/mL) Activity Range” value read?
A: C (activity>1.0 μg/mL-16 μg/mL)

Q: How did the “S. aureus MIC (μg/mL) Activity Range” value turn out when `NC(=O)c1c(F)ccc(OC(CC(O)CO)c2nc(-c3ccc(C(F)(F)F)cc3)c(Br)o2)c1F` (stereo not shown) [Compound 156, 3-(1-(5-bromo-4-(4-(trifluoromethyl)phenyl)oxazol-2-yl)-3,4-dihydroxybutoxy)-2,6-difluorobenzamide] was run?
A: C (activity>1.0 μg/mL-16 μg/mL)

Q: With `NC(=O)c1c(F)ccc(OC(CC(O)CO)c2nc(-c3ccc(C(F)(F)F)cc3)c(Br)o2)c1F` (stereo not shown) [Compound 157, 3-(1-(5-bromo-4-(4-(trifluoromethyl)phenyl)oxazol-2-yl)-3,4-dihydroxybutoxy)-2,6-difluorobenzamide] as the compound, how does the “S. aureus MIC (μg/mL) Activity Range” value read?
A: B (activity>0.25 μg/mL-1.0 μg/mL)

same assay, conditions: Staphylococcus aureus, ATCC29213, read-out: S. aureus MIC (μg/mL) Activity Range, S. aureus (ATCC29213)

Q: How did the MIC turn out when `NC(=O)c1c(F)ccc(OC(CO)c2nc(-c3ccc(C(F)(F)F)cc3)sc2Br)c1F` (stereo not shown) [Compound 131, 3-(1-(5-bromo-2-(4-(trifluoromethyl)phenyl)thiazol-4-yl)-2-hydroxyethoxy)-2,6-difluorobenzamide] was run?
A: > 16 µg/mL

Q: Which MIC does the source give for `NC(=O)c1c(F)ccc(OC(C(=O)O)c2coc(-c3ccc(C(F)(F)F)cc3)n2)c1F` (stereo not shown) [Compound 132, 2-(3-carbamoyl-2,4-difluorophenoxy)-2-(2-(4-(trifluoromethyl)phenyl)oxazol-4-yl)acetic acid] here?
A: > 16 µg/mL

Q: How did the MIC turn out when `CC(=O)OCC(COC(C)=O)CC(Oc1ccc(F)c(C(N)=O)c1F)c1nc(-c2ccc(C(F)(F)F)cc2)c(Br)o1` (stereo not shown) [Compound 133, 2-(2-(5-bromo-4-(4-(trifluoromethyl)phenyl)oxazol-2-yl)-2-(3-carbamoyl-2,4-difluorophenoxy)ethyl)propane-1,3-diyl diacetate] was run?
A: > 16 µg/mL

Q: For `CN(C)CCNC(=O)OCC(Oc1ccc(F)c(C(N)=O)c1F)c1nc(-c2ccc(C(F)(F)F)cc2)c(Br)o1` (stereo not shown) [Compound 134, 2-(5-bromo-4-(4-(trifluoromethyl)phenyl)oxazol-2-yl)-2-(3-carbamoyl-2,4-difluorophenoxy)ethyl (2-(dimethylamino)ethyl)carbamate], which MIC is on record?
A: 1 to 16 µg/mL (≈ 1.61 to 25.8 µM)

Q: How did the MIC turn out when `NC(=O)c1c(F)ccc(OC(COC(=O)N2CCNCC2)c2nc(-c3ccc(C(F)(F)F)cc3)c(Br)o2)c1F` (stereo not shown) [Compound 135, 2-(5-bromo-4-(4-(trifluoromethyl)phenyl)oxazol-2-yl)-2-(3-carbamoyl-2,4-difluorophenoxy)ethyl piperazine-1-carboxylate] was run?
A: 1 to 16 µg/mL (≈ 1.61 to 25.8 µM)

Q: Which MIC does the source give for `NC(=O)c1c(F)ccc(OC(CO)c2coc(-c3ccc(C(F)(F)F)cc3)n2)c1F` (stereo not shown) [Compound 136, 2,6-difluoro-3-(2-hydroxy-1-(2-(4-(trifluoromethyl)phenyl)oxazol-4-yl)ethoxy)benzamide] here?
A: 1 to 16 µg/mL (≈ 2.33 to 37.4 µM)

Q: For `CC(=O)OCC(Oc1ccc(F)c(C(N)=O)c1F)c1nc(-c2ccc(C(F)(F)F)cc2)oc1Br` (stereo not shown) [Compound 137, 2-(5-bromo-2-(4-(trifluoromethyl)phenyl)oxazol-4-yl)-2-(3-carbamoyl-2,4-difluorophenoxy)ethyl acetate], which MIC is on record?
A: > 16 µg/mL

Q: Which MIC does the source give for `NC(=O)c1c(F)ccc(OC(CO)c2nc(-c3ccc(C(F)(F)F)cc3)oc2Br)c1F` (stereo not shown) [Compound 138, 3-(1-(5-bromo-2-(4-(trifluoromethyl)phenyl)oxazol-4-yl)-2-hydroxyethoxy)-2,6-difluorobenzamide] here?
A: 1 to 16 µg/mL (≈ 1.97 to 31.5 µM)

Q: For `NC(=O)c1c(F)ccc(OC(CC(CO)CO)c2nc(-c3ccc(C(F)(F)F)cc3)c(Br)o2)c1F` (stereo not shown) [Compound 139, 3-(1-(5-bromo-4-(4-(trifluoromethyl)phenyl)oxazol-2-yl)-4-hydroxy-3-(hydroxymethyl)butoxy)-2,6-difluorobenzamide], which MIC is on record?
A: 1 to 16 µg/mL (≈ 1.77 to 28.3 µM)

Q: For `CCOC(=O)CNC(=O)OCC(Oc1ccc(F)c(C(N)=O)c1F)c1nc(-c2ccc(C(F)(F)F)cc2)c(Br)o1` (stereo not shown) [Compound 140, ethyl 2-(((2-(5-bromo-4-(4-(trifluoromethyl)phenyl)oxazol-2-yl)-2-(3-carbamoyl-2,4-difluorophenoxy)ethoxy)carbonyl)amino)acetate], which MIC is on record?
A: 0.25 to 1 µg/mL (≈ 0.393 to 1.57 µM)

Q: With `COC(=O)CCNC(=O)OCC(Oc1ccc(F)c(C(N)=O)c1F)c1nc(-c2ccc(C(F)(F)F)cc2)c(Br)o1` (stereo not shown) [Compound 141, methyl 3-(((2-(5-bromo-4-(4-(trifluoromethyl)phenyl)oxazol-2-yl)-2-(3-carbamoyl-2,4-difluorophenoxy)ethoxy)carbonyl)amino)propanoate] as the compound, how does the MIC read?
A: < 0.25 µg/mL

Q: How did the MIC turn out when `NC(=O)c1c(F)ccc(OC(COC(=O)NCC(=O)O)c2nc(-c3ccc(C(F)(F)F)cc3)c(Br)o2)c1F` (stereo not shown) [Compound 142, 2-(((2-(5-bromo-4-(4-(trifluoromethyl)phenyl)oxazol-2-yl)-2-(3-carbamoyl-2,4-difluorophenoxy)ethoxy)carbonyl)amino)acetic acid] was run?
A: > 16 µg/mL

Q: How did the MIC turn out when `NC(=O)c1c(F)ccc(OC(COC(=O)NCCC(=O)O)c2nc(-c3ccc(C(F)(F)F)cc3)c(Br)o2)c1F` (stereo not shown) [Compound 143, 3-(((2-(5-bromo-4-(4-(trifluoromethyl)phenyl)oxazol-2-yl)-2-(3-carbamoyl-2,4-difluorophenoxy)ethoxy)carbonyl)amino)propanoic acid] was run?
A: 1 to 16 µg/mL (≈ 1.61 to 25.7 µM)

Q: How did the MIC turn out when `CC(=O)OCC(Oc1ccc(F)c(C(N)=O)c1F)c1nc(-c2ccc(S(C)(=O)=O)cc2)c(Br)o1` (stereo not shown) [Compound 144, 2-(5-bromo-4-(4-(methylsulfonyl)phenyl)oxazol-2-yl)-2-(3-carbamoyl-2,4-difluorophenoxy)ethyl acetate] was run?
A: > 16 µg/mL

Q: `CS(=O)(=O)c1ccc(-c2nc(C(CO)Oc3ccc(F)c(C(N)=O)c3F)oc2Br)cc1` (stereo not shown) [Compound 145, 3-(1-(5-bromo-4-(4-(methylsulfonyl)phenyl)oxazol-2-yl)-2-hydroxyethoxy)-2,6-difluorobenzamide] was tested. Which MIC did it give?
A: > 16 µg/mL

Q: Which MIC does the source give for `NC(=O)c1c(F)ccc(OC(CO)c2nc(Br)c(-c3ccc(C(F)(F)F)cc3)o2)c1F` (stereo not shown) [Compound 149, 3-(1-(4-bromo-5-(4-(trifluoromethyl)phenyl)oxazol-2-yl)-2-hydroxyethoxy)-2,6-difluorobenzamide] here?
A: 1 to 16 µg/mL (≈ 1.97 to 31.5 µM)

Q: For `NC(=O)c1c(F)ccc(OC(COCCO)c2nc(-c3ccc(C(F)(F)F)cc3)c(Br)o2)c1F` (stereo not shown) [Compound 150, 3-(1-(5-bromo-4-(4-(trifluoromethyl)phenyl)oxazol-2-yl)-2-(2-hydroxyethoxy)ethoxy)-2,6-difluorobenzamide], which MIC is on record?
A: 0.25 to 1 µg/mL (≈ 0.454 to 1.81 µM)

Q: With `CC(C)(C)OC(=O)NCCNC(=O)OCC(Oc1ccc(F)c(C(N)=O)c1F)c1nc(-c2ccc(C(F)(F)F)cc2)c(Br)o1` (stereo not shown) [Compound 151, 2-(5-bromo-4-(4-(trifluoromethyl)phenyl)oxazol-2-yl)-2-(3-carbamoyl-2,4-difluorophenoxy)ethyl tert-butyl ethane-1,2-diyldicarbamate] as the compound, how does the MIC read?
A: < 0.25 µg/mL

Q: With `NCCNC(=O)OCC(Oc1ccc(F)c(C(N)=O)c1F)c1nc(-c2ccc(C(F)(F)F)cc2)c(Br)o1` (stereo not shown) [Compound 152, 2-(5-bromo-4-(4-(trifluoromethyl)phenyl)oxazol-2-yl)-2-(3-carbamoyl-2,4-difluorophenoxy)ethyl (2-aminoethyl)carbamate] as the compound, how does the MIC read?
A: 1 to 16 µg/mL (≈ 1.69 to 27 µM)

Q: Which MIC does the source give for `CN(CCNC(=O)OCC(Oc1ccc(F)c(C(N)=O)c1F)c1nc(-c2ccc(C(F)(F)F)cc2)c(Br)o1)C(=O)OC(C)(C)C` (stereo not shown) [Compound 153, tert-butyl (2-(((2-(5-bromo-4-(4-(trifluoromethyl)phenyl)oxazol-2-yl)-2-(3-carbamoyl-2,4-difluorophenoxy)ethoxy)carbonyl)amino)ethyl)(methyl)carbamate] here?
A: 0.25 to 1 µg/mL (≈ 0.353 to 1.41 µM)

Q: `CNCCNC(=O)OCC(Oc1ccc(F)c(C(N)=O)c1F)c1nc(-c2ccc(C(F)(F)F)cc2)c(Br)o1` (stereo not shown) [Compound 154, 2-(5-bromo-4-(4-(trifluoromethyl)phenyl)oxazol-2-yl)-2-(3-carbamoyl-2,4-difluorophenoxy)ethyl (2-(methylamino)ethyl)carbamate] was tested. Which MIC did it give?
A: 1 to 16 µg/mL (≈ 1.65 to 26.3 µM)

Q: With `COCCOCC(Oc1ccc(F)c(C(N)=O)c1F)c1nc(-c2ccc(C(F)(F)F)cc2)c(Br)o1` (stereo not shown) [Compound 155, 3-(1-(5-bromo-4-(4-(trifluoromethyl)phenyl)oxazol-2-yl)-2-(2-methoxyethoxy)ethoxy)-2,6-difluorobenzamide] as the compound, how does the MIC read?
A: 0.25 to 1 µg/mL (≈ 0.442 to 1.77 µM)

Q: `CC(=O)OCC(Oc1cccc(C(N)=O)c1F)c1nc(-c2ccc(C(F)(F)F)cc2)c(Br)o1` (stereo not shown) [Compound 158, 2-(5-bromo-4-(4-(trifluoromethyl)phenyl)oxazol-2-yl)-2-(3-carbamoyl-2-fluorophenoxy)ethyl acetate] was tested. Which MIC did it give?
A: < 0.25 µg/mL

Q: How did the MIC turn out when `NC(=O)c1cccc(OC(CO)c2nc(-c3ccc(C(F)(F)F)cc3)c(Br)o2)c1F` (stereo not shown) [Compound 159, 3-(1-(5-bromo-4-(4-(trifluoromethyl)phenyl)oxazol-2-yl)-2-hydroxyethoxy)-2-fluorobenzamide] was run?
A: < 0.25 µg/mL

Q: `NC(=O)c1c(F)ccc(OC(COC(=O)N2CCOCC2)c2nc(-c3ccc(C(F)(F)F)cc3)c(Br)o2)c1F` (stereo not shown) [Compound 160, 2-(5-bromo-4-(4-(trifluoromethyl)phenyl)oxazol-2-yl)-2-(3-carbamoyl-2,4-difluorophenoxy)ethyl morpholine-4-carboxylate] was tested. Which MIC did it give?
A: < 0.25 µg/mL

Q: With `NC(=O)c1c(F)ccc(OC(COC(=O)NCCN2CCCC2)c2nc(-c3ccc(C(F)(F)F)cc3)c(Br)o2)c1F` (stereo not shown) [Compound 161, 2-(5-bromo-4-(4-(trifluoromethyl)phenyl)oxazol-2-yl)-2-(3-carbamoyl-2,4-difluorophenoxy)ethyl (2-(pyrrolidin-1-yl)ethyl)carbamate] as the compound, how does the MIC read?
A: 1 to 16 µg/mL (≈ 1.54 to 24.7 µM)

Q: Which MIC does the source give for `NC(=O)c1c(F)ccc(OC(COC(=O)NCCc2c[nH]cn2)c2nc(-c3ccc(C(F)(F)F)cc3)c(Br)o2)c1F` (stereo not shown) [Compound 162, 2-(5-bromo-4-(4-(trifluoromethyl)phenyl)oxazol-2-yl)-2-(3-carbamoyl-2,4-difluorophenoxy)ethyl (2-(1H-imidazol-4-yl)ethyl)carbamate] here?
A: 1 to 16 µg/mL (≈ 1.55 to 24.8 µM)

Q: With `NC(=O)c1c(F)ccc(OC(COC(=O)NCCO)c2nc(-c3ccc(C(F)(F)F)cc3)c(Br)o2)c1F` (stereo not shown) [Compound 163, 2-(5-bromo-4-(4-(trifluoromethyl)phenyl)oxazol-2-yl)-2-(3-carbamoyl-2,4-difluorophenoxy)ethyl (2-hydroxyethyl)carbamate] as the compound, how does the MIC read?
A: 0.25 to 1 µg/mL (≈ 0.421 to 1.68 µM)
